Measurements from PubChem BioAssay (NCI).
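Each compound was tested at five concentrations against cells in 96-well plates for 48 hours. GI50 marks 50% less growth. TGI: total growth inhibition.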

Assays:
Experiment in all cases: DTP human tumour cell line panel, 48 h
SW-620 colon = system: SW-620 colon
HL-60(TB) leukemia = system: HL-60(TB) leukemia
PC-3 prostate = system: PC-3 prostate
SK-MEL-2 melanoma = system: SK-MEL-2 melanoma
NCI-H522 lung = system: NCI-H522 lung
SR leukemia = system: SR leukemia
HOP-62 NSCLC = system: HOP-62 NSCLC
K-562 leukemia = system: K-562 leukemia
HOP-92 NSCLC = system: HOP-92 NSCLC
MDA-MB-231 breast = system: MDA-MB-231 breast
UACC-257 melanoma = system: UACC-257 melanoma
MOLT-4 leukemia = system: MOLT-4 leukemia
TK-10 renal = system: TK-10 renal
HT29 colon = system: HT29 colon
M14 melanoma = system: M14 melanoma
786-0 renal = system: 786-0 renal
A498 renal = system: A498 renal
SF-295 CNS = system: SF-295 CNS
SF-539 CNS = system: SF-539 CNS
HS 578T breast = system: HS 578T breast
IGROV1 ovarian = system: IGROV1 ovarian
BT-549 breast = system: BT-549 breast
NCI-H23 lung = system: NCI-H23 lung
HCT-15 colon = system: HCT-15 colon
NCI/ADR-RES ovarian = system: NCI/ADR-RES ovarian
DU-145 prostate = system: DU-145 prostate
CAKI-1 renal = system: CAKI-1 renal
SNB-75 CNS = system: SNB-75 CNS
MCF7 breast = system: MCF7 breast
OVCAR-4 ovarian = system: OVCAR-4 ovarian
HCT-116 colon = system: HCT-116 colon
EKVX NSCLC = system: EKVX NSCLC
SF-268 CNS = system: SF-268 CNS
CCRF-CEM leukemia = system: CCRF-CEM leukemia
SK-OV-3 ovarian = system: SK-OV-3 ovarian
HCC-2998 colon = system: HCC-2998 colon
NCI-H226 lung = system: NCI-H226 lung
ACHN renal = system: ACHN renal
UACC-62 melanoma = system: UACC-62 melanoma
SN12C renal = system: SN12C renal
SK-MEL-5 melanoma = system: SK-MEL-5 melanoma
OVCAR-5 ovarian = system: OVCAR-5 ovarian
U251 CNS = system: U251 CNS
RPMI-8226 leukemia = system: RPMI-8226 leukemia
KM12 colon = system: KM12 colon
SNB-19 CNS = system: SNB-19 CNS
T-47D breast = system: T-47D breast
UO-31 renal = system: UO-31 renal
COLO 205 colon = system: COLO 205 colon
MDA-MB-435 = system: MDA-MB-435
LOX IMVI melanoma = system: LOX IMVI melanoma
A549 NSCLC = system: A549 NSCLC
SK-MEL-28 melanoma = system: SK-MEL-28 melanoma
OVCAR-8 ovarian = system: OVCAR-8 ovarian
MALME-3M melanoma = system: MALME-3M melanoma

With `CCC1=Cc2cc(OC)ccc2OC12C=Cc1cc(OC)ccc1O2` (configuration not stated) the GI50 (SW-620 colon) was 385 nM, the TGI (SW-620 colon) was greater than 100000 nM and the GI50 (HL-60(TB) leukemia) was 331 nM. It also gave a TGI (HL-60(TB) leukemia) greater than 100000 nM, a GI50 (PC-3 prostate) of 536 nM and a TGI (PC-3 prostate) greater than 100000 nM. It also gave a GI50 (SK-MEL-2 melanoma) of 303 nM, a TGI (SK-MEL-2 melanoma) of 896 nM and a GI50 (NCI-H522 lung) of 283 nM. For the same molecule, the TGI (NCI-H522 lung) was 936 nM, the GI50 (SR leukemia) was 327 nM and the TGI (SR leukemia) was greater than 100000 nM. For the same molecule, the GI50 (HOP-62 NSCLC) was 594 nM, the TGI (HOP-62 NSCLC) was greater than 100000 nM and the GI50 (K-562 leukemia) was 379 nM. It also gave a TGI (K-562 leukemia) greater than 100000 nM, a GI50 (HOP-92 NSCLC) of 964 nM and a TGI (HOP-92 NSCLC) greater than 26700 nM. It also gave a GI50 (MDA-MB-231 breast) of 964 nM, a TGI (MDA-MB-231 breast) greater than 100000 nM and a GI50 (UACC-257 melanoma) of 977 nM. It also gave a TGI (UACC-257 melanoma) greater than 100000 nM, a GI50 (MOLT-4 leukemia) of 500 nM and a TGI (MOLT-4 leukemia) greater than 100000 nM. The GI50 (TK-10 renal) was greater than 100000 nM, the TGI (TK-10 renal) was greater than 100000 nM and the GI50 (HT29 colon) was 347 nM. The TGI (HT29 colon) was 1270 nM, the GI50 (M14 melanoma) was 366 nM and the GI50 (786-0 renal) was 676 nM. It also gave a TGI (786-0 renal) greater than 100000 nM, a GI50 (A498 renal) of 250 nM and a TGI (A498 renal) of 827 nM. It also gave a GI50 (SF-295 CNS) of 418 nM, a TGI (SF-295 CNS) greater than 100000 nM and a GI50 (SF-539 CNS) of 328 nM. It also gave a TGI (SF-539 CNS) of 2150 nM, a GI50 (HS 578T breast) of 298 nM and a GI50 (IGROV1 ovarian) of 739 nM. For the same molecule, the TGI (IGROV1 ovarian) was greater than 100000 nM, the GI50 (BT-549 breast) was 499 nM and the TGI (BT-549 breast) was 3810 nM. It also gave a GI50 (NCI-H23 lung) of 1070 nM, a TGI (NCI-H23 lung) greater than 100000 nM and a GI50 (HCT-15 colon) of 450 nM. For the same molecule, the TGI (HCT-15 colon) was greater than 100000 nM, the GI50 (NCI/ADR-RES ovarian) was 421 nM and the TGI (NCI/ADR-RES ovarian) was greater than 100000 nM. For the same molecule, the GI50 (DU-145 prostate) was 481 nM, the TGI (DU-145 prostate) was greater than 100000 nM and the GI50 (CAKI-1 renal) was 504 nM. It also gave a TGI (CAKI-1 renal) greater than 100000 nM, a GI50 (SNB-75 CNS) of 218 nM and a TGI (SNB-75 CNS) of 720 nM. For the same molecule, the GI50 (MCF7 breast) was 389 nM, the TGI (MCF7 breast) was greater than 100000 nM and the GI50 (OVCAR-4 ovarian) was greater than 100000 nM. It also gave a TGI (OVCAR-4 ovarian) greater than 100000 nM, a GI50 (HCT-116 colon) of 518 nM and a TGI (HCT-116 colon) greater than 100000 nM. For the same molecule, the GI50 (EKVX NSCLC) was 678 nM, the TGI (EKVX NSCLC) was greater than 100000 nM and the GI50 (SF-268 CNS) was 1040 nM. The TGI (SF-268 CNS) was greater than 100000 nM, the GI50 (CCRF-CEM leukemia) was 398 nM and the TGI (CCRF-CEM leukemia) was greater than 100000 nM. It also gave a GI50 (SK-OV-3 ovarian) of 563 nM, a TGI (SK-OV-3 ovarian) greater than 100000 nM and a GI50 (HCC-2998 colon) of 1710 nM. For the same molecule, the TGI (HCC-2998 colon) was greater than 100000 nM, the GI50 (NCI-H226 lung) was 1060 nM and the TGI (NCI-H226 lung) was greater than 100000 nM. The GI50 (ACHN renal) was 789 nM, the TGI (ACHN renal) was greater than 100000 nM and the GI50 (UACC-62 melanoma) was 553 nM. For the same molecule, the TGI (UACC-62 melanoma) was greater than 100000 nM, the GI50 (SN12C renal) was 796 nM and the TGI (SN12C renal) was greater than 100000 nM. The GI50 (SK-MEL-5 melanoma) was 1420 nM, the TGI (SK-MEL-5 melanoma) was greater than 100000 nM and the GI50 (OVCAR-5 ovarian) was 936 nM. For the same molecule, the TGI (OVCAR-5 ovarian) was greater than 100000 nM, the GI50 (U251 CNS) was 517 nM and the TGI (U251 CNS) was greater than 100000 nM. It also gave a GI50 (RPMI-8226 leukemia) of 393 nM, a TGI (RPMI-8226 leukemia) greater than 100000 nM and a GI50 (KM12 colon) of 423 nM. For the same molecule, the TGI (KM12 colon) was greater than 100000 nM, the GI50 (SNB-19 CNS) was 550 nM and the TGI (SNB-19 CNS) was greater than 100000 nM. The TGI (T-47D breast) was greater than 100000 nM, the GI50 (UO-31 renal) was 1150 nM and the TGI (UO-31 renal) was greater than 100000 nM. It also gave a GI50 (COLO 205 colon) of 326 nM, a TGI (COLO 205 colon) of 898 nM and a GI50 (MDA-MB-435) of 228 nM. The TGI (MDA-MB-435) was 503 nM, the GI50 (LOX IMVI melanoma) was 484 nM and the TGI (LOX IMVI melanoma) was greater than 100000 nM. For the same molecule, the GI50 (A549 NSCLC) was 809 nM, the TGI (A549 NSCLC) was greater than 100000 nM and the GI50 (SK-MEL-28 melanoma) was greater than 100000 nM. For the same molecule, the TGI (SK-MEL-28 melanoma) was greater than 100000 nM, the GI50 (OVCAR-8 ovarian) was 596 nM and the TGI (OVCAR-8 ovarian) was greater than 100000 nM. The GI50 (MALME-3M melanoma) was 624 nM and the TGI (MALME-3M melanoma) was greater than 100000 nM.
